Assay results: article PMC9387934, “Randomized single oral dose phase 1 study of safety, tolerability, and pharmacokinetics of Iminosugar UV-4 Hydrochloride (UV-4B) in healthy subjects” (PLoS Neglected Tropical Diseases, 2022)
Counter-ions that a name gives are not always drawn.

Columns and labels:
[1] = test system: all ten CYPs; parameters: method as in Investigator’s Brochure (IB); details: all ten CYPs at the tested conditions; ref Investigator’s Brochure (IB); cited from earlier work
[2] = test system: CYP2E1; parameters: method as in Investigator’s Brochure (IB); details: in vitro; ref Investigator’s Brochure (IB); cited from earlier work
[3] = parameters: method as in Investigator’s Brochure (IB); details: mice, 1000 mg/kg single dose; ref Investigator’s Brochure (IB); cited from earlier work
[4] = 14-day GLP toxicology study in dogs (UV4-COV-0035); assay type: in vivo, dog
Description: Fourteen-day studies were conducted in mice and dogs. In dogs at 2 mg/kg/dose TID (6 mg/kg/day), there were mild decreases in platelets (PLT), increases in aspartate aminotransferase (AST) (up to 2.8 x baseline [BL]); and a decrease in thymus weight with lymphocyte depletion. Therefore, this dose exceeded the NOEL. At the no observed adverse event level (NOAEL) of 10 mg/kg/dose TID (30 mg/kg/day), there was an increase in the occurrence of poorly formed and liquid feces; decrease in PLT count and increase in activated partial thromboplastin time (aPTT) (2.2 x BL); increase in AST (up to 9.7 x BL) and alanine aminotransferase (ALT) (up to 2.9 x BL) with an inverted AST/ALT ratio; and a decrease in […]
lymphocyte depletion (no cellular debris was noted, however). The inverted AST/ALT ratio and lymphocyte depletion were reversible. Thymus weight decrease in females was reversible but thymus weight decreases in males were not. However, because the apparent […]
microscopic thymus findings, thymus weight differences at the recovery necropsy were considered not toxicologically important. […]
ng•h/mL, respectively. Daily exposure at NOAEL [calculated as 3 x AUC(0-8)] is estimated at 163,305 ng•h/mL. […]
Daily exposure [calculated as 3 x AUC(0-8)] is estimated at 32,820 ng•h/mL. […]

COCCCCCCCCCN1C[C@H](O)[C@@H](O)[C@H](O)[C@H]1CO [UV-4, N-(9’-methoxynonyl)-1-deoxynojirimycin]
Potential for metabolism-dependent inhibition [1]: no significant potential | Direct inhibition of CYP2E1 [2]: No clinically relevant direct inhibition

COCCCCCCCCCN1C[C@H](O)[C@@H](O)[C@H](O)[C@H]1CO [UV-4B, N-(9’-methoxynonyl)-1-deoxynojirimycin hydrochloride]
Respiratory function [3]: no adverse treatment-related effects | AUC(0-t) ([4]; both sexes, dog, in vivo, 30 mg/kg/day, dogs, at NOAEL 30 mg/kg/day, read-out: Daily exposure [3 x AUC(0-8)]): 32800 ng·h/mL | HED of the lowest dose tested in dogs ([4]; from 2 mg/kg TID): 67 mg TID
